Data on one molecule can be found in patent US10111877B2, “Modulators of androgen synthesis” (Tangent Reprofiling Limited, priority 2012, dated 2018).

One series concerns PC3 cells. The experiment in a line: Cell metabolism inhibition assay (Cell titre Blue) with fatty acids. Particulars: 100% = undrugged media. It counts as cell-based. The method, then: A cell metabolism inhibition assay was performed to determine the effect of different fatty acids on cellular metabolic rate. The fatty acids tested were α-Linolenic acid, omega 3 fatty acid (ALA), Arachidonic acid, omega 6 fatty acid (AA), 9Z, 11E conjugated Linoleic acid, omega 7 fatty acid (CLA), Docosahexaenoic acid, omega 3 fatty acid (DHA), Eicosapentaenoic acid, omega 3 fatty acid (EPA), Oleic acid, omega 9 fatty acid (OA), Ricinoleic acid, omega 9 hydroxylated fatty acid (RA).
PC3 cells are from a cell line derived from a hormone refractory prostate cancer and are known to overexpress HSD10. PC3 cells were seeded at a density of 4,000 cells per well in a 96 well plate, and incubated at 37° C., 5% CO2 for 48 hours in standard growth media (F12K nutrient media, 7% Fetal Calf Serum, 2 mM L-Glutamine, 45 mg/L ascorbic acid). The media was then removed by pipette and replaced with the appropriate drug treatment as follows: 20 μM, or 40 μM, or 60 μM, or 80 μM, or 100 μM ALA in PC3 treatment media (F12K nutrient media, 125 uM fatty acid free BSA, 2 mM L-Glutamine, 45 mg/L ascorbic acid); 20 μM, or 40 μM, or 60 μM, or 80 μM, or 100 μM AA in PC3 treatment media; 20 μM, or 40 μM, or 60 μM, or 80 μM, or 100 μM CLA in PC3 treatment media; 20 μM, or 40 μM, or 60 μM, or 80 μM, or 100 μM DHA in PC3 treatment media; 20 μM, or 40 μM, or 60 μM, or 80 μM, or 100 μM EPA in PC3 treatment media; 20 μM, or 40 μM, or 60 μM, or 80 μM, or 100 μM OA in PC3 treatment media; and 20 μM, or 40 μM, or 60 μM, or 80 μM, or 100 μM RA in PC3 treatment media. After incubation in the drug treatment for 72 hours at 37° C., 5% CO2, 50 μL Cell titre Blue Assay Reagent was added to each well and the plate return to incubation at 37° C., 5% CO2, for a further 24 hours, at which time the absorbance at 620 nm was recorded. The reduction of absorbance at 620 nm represents a higher metabolic rate, and the data below has been normalized such that 100% represents cells that have been grown in the presence of undrugged media, and 0% represents wells containing no cells.

In another series the test system is A549 cells. Kind of series: Cell growth inhibition, lysed cell LDH assay, lung cancer cell line. It counts as cell-based. Particulars: A549; 50 μM Risperidone and/or 50 μM CLA, 1 μM Testosterone (T) where added; 96 hours.
The test system of the next series is MCF7 cells. The experiment in a line: Cell growth inhibition, lysed cell LDH assay, breast cancer cell line. Particulars: 50 μM Risperidone and/or 50 μM CLA, 1 μM Testosterone (T) where added, 96 hours. The class given is cell-based. The method, then: (§1) To determine whether Risperidone could be effective in inhibiting growth of cancer cells overexpressing HSD10, a lysed cell LDH assay was conducted using cells taken from a prostate cancer cell line, a lung cancer cell line, a breast cancer cell line, an ovarian cancer cell line, each of which was known to overexpress HSD10, and a non-cancerous cell line.
(§2) After incubation in the drug treatment for 96 hours at 37° C., 5% CO2, the supernatant was removed from all wells of cells, and cells washed with 200 μL PBS.
(§3) After removal of the PBS from the cell cultures described above, cell number was determined using a lysed cell LDH assay. Cells were lysed with 0.9% Triton-X in PBS for 2 hours at 37° C., 5% CO2 and 50 μL of this cell lysate was transferred to a fresh 96 well plate. About 50 μL of CytoTox 96 assay reagent was added to the transferred cell lysate and this mixture was incubated at room temperature in the dark for 20 minutes. After the addition of 50 μL stop reagent, the optical absorbance was determined for each incubated mixture at 492 nm. […] The mean and standard error was calculated from at least 3 wells.

Another series relates to OVCAR-3 cells. Kind of series: Cell growth inhibition, lysed cell LDH assay, ovarian cancer cell line. It counts as cell-based. Particulars: 50 μM Risperidone and/or 50 μM CLA, 1 μM Testosterone (T) where added, 96 hours. The method, then: as §1, §2, §3
The test system of a further series is VERO cells. Kind of series: Cell growth inhibition, lysed cell LDH assay, non-cancerous cell line. It counts as cell-based. The method, then:
as §1, §2, §3

In the next series the test system is BxPC-3 cells. The experiment in a line: Resazurin-based cell viability assay, pancreatic cancer cell line. As to conditions: 72 hours, combination equimolar, 100% = no drug, 0% = Paclitaxel. The method, then: To determine whether Risperidone alone, or in combination with CLA could inhibit cell growth of cells taken from a pancreatic cancer cell line overexpressing HSD10, a resazurin-based cell viability assay was conducted on Bx-PC3 cells.
BxPC-3 cells are from a cell line derived from a human pancreatic adenocarcinoma and are known to overexpress HSD10. BxPC-3 cells were seeded at a density of 4,000 cells per well in a 384 well plate, and incubated at 37° C., 5% CO2 for 24 hours in standard growth media (RPMI nutrient media, 5% heat-inactivated Fetal Calf Serum, 2 mM L-Glutamine). The media was then removed by pipette and replaced with 50 μL BxPC-3 treatment media comprising 125 μM fatty acid-free BSA, 2 mM L-Glutamine and one of the following drug treatments: 0.1 μM, 2 μM, or 50 μM Risperidone; 0.1 μM, 2 μM, or 50 μM CLA; or 0.1 μM, 2 μM, or 50 μM of Risperidone and CLA (in equimolar amounts). After incubation in the drug treatment for 72 hours at 37° C., 5% CO2, viable cell number was determined using a resazurin-based cell viability assay (PRESTOBLUE®; Invitrogen, Carlsbad, Calif.). To each well, 7 μL of PRESTOBLUE® reagent was added and the plates incubated for 60 minutes at 37° C., 5% CO2. After incubation, the fluorescence intensity of each well was determined using a microplate reader by excitation and 570 nm and recording emission at 600 nm. The percentage of viable cell number was calculated by normalizing the experimental fluorescence intensity, where 100% is set to cells receiving no drug treatment (cells metabolizing at optimal rate), and 0% is set to readings from cells treated with Paclitaxel (cells not metabolizing at all due to their destruction by anti-cancer drug). A value under 50% could be considered a useful indication of potential efficacy.
A general note: Resazurin is reduced to fluorescent resorufin, in cell work by metabolically active cells.

Another series concerns PC-3M-luc cells. Kind of series: Orthotopic prostate tumor mouse xenograft model. As to conditions: single drug.

Method for A549 cells: To determine whether Risperidone alone, or in combination with CLA could inhibit cell growth of cells taken from a lung cancer cell line overexpressing HSD10, A549 cells were seeded at a density of 2,000 cells per well in a 96 well plate, and incubated at 37° C., 5% CO2 for 48 hours in standard growth media (DMEM nutrient media, 10% Fetal Calf Serum, 2 mM L-Glutamine). The media was then removed by pipette and replaced with the appropriate drug treatment as follows: 50 μM Risperidone in A459 treatment media (DMEM nutrient media, 125 uM fatty acid free BSA, 2 mM L-Glutamine); 50 μM CLA in A459 treatment media; 50 μM Risperidone and 50 μM CLA in A459 treatment media; 50 μM Risperidone and 1 μM Testosterone in A459 treatment media; 50 μM Risperidone, 50 μM CLA, and 1 μM Testosterone in A459 treatment media. After incubation in the drug treatment for 96 hours at 37° C., 5% CO2, the supernatant was removed from all wells of cells, and cells washed with 200 μL PBS.
After removal of the PBS from the cell cultures described above, cell number was determined using a lysed cell LDH assay. Cells were lysed with 0.9% Triton-X in PBS for 2 hours at 37° C., 5% CO2 and 50 μL of this cell lysate was transferred to a fresh 96 well plate. About 50 μL of CytoTox 96 assay reagent was added to the transferred cell lysate and this mixture was incubated at room temperature in the dark for 20 minutes. After the addition of 50 μL stop reagent, the optical absorbance was determined for each incubated mixture at 492 nm. The percentage cell number was calculated by normalizing the experimental counts, where 100% is set to cells receiving no drug treatment, and 0% is set to readings from wells containing no cells. The mean and standard error was calculated from at least 3 wells.
Method for PC-3M-luc cells: Immunodeficeint male mice (athymic nude mice) were acclimated to the laboratory for at least one week prior to implantation of tumor. PC-3M-luc cells obtained directly from in vitro culture were then injected into the prostate on Day 0. Animals were divided into six groups of 12 mice each. Primary tumor size and metastases were assessed by bioluminescence measurements on day 6, 13, 20, 27, 34, and 40. On day 7 a five week treatment regime was initiated. Both individual drug and high and low dose combination were examined by administering the drugs twice daily on an individual body weight basis using a dose escalation protocol (Table 7). If tumors grew above a pre-determined level, or mice lost more than 10% of bodyweight, they were culled. The primary tumor was excised, weighed and measured. Individual organs were imaged to assess metastatic burden.

Take `CCCCCC/C=C/C=C\CCCCCCCC(=O)O` [CLA, 9Z, 11E conjugated Linoleic acid]: the “Cellular Metabolic Activity” value amounted to 86 ± 2.4% in the series with PC3 cells (20 μM fatty acid); 71 ± 3.8% in the series on PC3 cells (40 μM fatty acid); 59 ± 2.8% with PC3 cells (60 μM fatty acid); 63 ± 4.0% with PC3 cells (80 μM fatty acid); 67 ± 5.0% with PC3 cells (100 μM fatty acid). Further, the “Percentage of Lysed Cells” value in the series on A549 cells turned out to be 4.5 ± 0.3%; in the series with MCF7 cells it was 56 ± 2.6%; in the series with OVCAR-3 cells, 87 ± 6.0%; in the series on VERO cells (VERO, 50 μM Risperidone and/or 50 μM CLA, 1 μM Testosterone (T) where added, 96 hours) it was 98 ± 2.7%. For the same molecule, the “effect on growth of cells from the non-cancerous cell line VERO” value with VERO cells (50 μM) is “neither Risperidone nor CLA had any measurable effect”. Moreover, the “percentage of viable cell number” value is given as 103% in the series on BxPC-3 cells (0.1 uM), 71% with BxPC-3 cells (2 uM) and 119% in the series on BxPC-3 cells (50 uM). Besides, the “body weight throughout the study” value in the series with PC-3M-luc cells (by Day 40) is “maintained a constant weight”. Also, in the series with PC-3M-luc cells (by day 34), the animal loss result was “about 10%”. Also, the “Tumor Growth Inhibition” value in the series with PC-3M-luc cells (calculated on Day 34, dosing per Table 7, listed as Rumenic Acid) is 21%. In addition, in the series on PC-3M-luc cells (day 40, dosing per Table 7, listed as Rumenic Acid), the “Animal Survival (overall survivorship)” value is 45%.
